From patent US8809280B2, “Therapeutic peptides” (Lytix Biopharma AS, priority 2009, dated 2014)
In brackets after ≈: the same amount, converted by molar mass. Like-named read-outs stand apart in the source and are kept apart here.

How the values were obtained:
Type in all cases: cell-based
[1] = system: Staphylococcus aureus (ATTC 25923); test: microbe, parasite or virus in culture
Procedure: (§1) The antimicrobial testing was conducted by TosLab A/S (Tromsø, Norway). Each compound was diluted to 1 mg/ml in water and tested in duplicates at 200, 100, 50, 35, 15, 10, 5, 2.5, 1, 0.5 μg/ml except 4n which was tested at 50, 35, 15, 10, 5, 2.5, 1, 0.5 μg/ml due to solubility problems. All tested compounds were di TFA salts.
(§2) The bacterial strains were grown in 2% Bacto Peptone water until exponential growth was achieved. […] A bacterial concentration of 2×10^6 cfu/ml was used. Both negative control (no peptide) and positive control (Gentamicin) was used for all bacterial strains. Growth or no growth was judged by the turbidity of the wells.
Staphylococcus aureus (ATTC 25923)
(§3) Antimicrobial assays: 200 μg/ml
(§4) Suitable methodologies are described in Example 1.
(§5) Each compound was tested in duplicates at 200, 100, 50, 35, 15, 10, 5, 2.5, 1, 0.5 μg/ml. All tested compounds were di-trifluoroacetic acid salts.

human red blood cells = test: cells; details: for EC50 RBC: Example 1, 50% hemolysis of human red blood cells
Procedure: The hemolytic testing against human erythrocytes was conducted by Lytix Biopharma A/S (Tromso, Norway). Each compound was tested from a concentration of 1 mg/ml and lower, except 4k and 4n which was only tested up to 0.5 mg/ml due to solubility problems. 8 mL of blood was collected from adult healthy male donors. The blood was divided equally and distributed in a commercial available EDTA containing test tube (BD vacutainer, 7.2 mg K2 EDTA) and in a 10 mL reaction vial containing 40 μL of a heparin solution (1000 U/mL in 0.9% sodium chloride). After 30 minutes the hematocrit of the EDTA treated blood was determined. The heparinized blood was centrifuged for 10 minutes at 1500 rpm and the supernatant removed. Subsequently the RBCs were washed with prewarmed PBS three times, and diluted to 10% hematocrit. The compounds dissolved in PBS (concentration 1 μg/mL to 1000 µg/mL) and the erythrocytes were incubated under agitation at 37° C. for one hour. A positive control with an end concentration of 0.1% TRITON X-100 (nonionic surfactant) and a negative control containing pure PBS buffer were included. The samples were centrifuged (4000 rpm) for 5 minutes and the absorption of the supernatant was measured at 405 nm. The values given in Table 1A correspond to 50% hemolysis.
The plasma fraction of heparinized human blood was first removed by centrifugation and three additional washing steps with 37° C. pre-warmed phosphate buffered saline (PBS). Subsequently, the human RBC were diluted to 10% hematocrit and the β^2,2-amino acid derivatives were dissolved in PBS providing concentrations ranging from 1-1000 μg/mL. The diluted RBC were added to the compound solutions to a final erythrocyte concentration of 1% v/v. PBS and TRITON X-100 (non-ionic surfactant), in a final concentration of 0.1% v/v, were included as negative and positive control. After 1 hour agitated incubation at 37° C. the samples were centrifuged at 4000 rpm for 5 min. Release of hemoglobin was determined by measuring the absorbance of the supernatant at 405 nm. Hemolytic activity was calculated as the ratio of treated sample with β^2,2-amino acid derivative and tenside treated sample according to the formula: […]

[2] = system: methicillin resistant Staphylococcus aureus (ATCC 33591); test: microbe, parasite or virus in culture; details: for MBC MRSA / MIC MRSA: ATCC 33591; for MIC: Staphylococcus aureus, ATCC 33591 / MRSA, Example 2, values separated by / are repeat tests, read-out: Antimicrobial potency (MIC) MRSA
Procedure: as §1, §2
Methicillin resistant Staphylococcus aureus (ATCC 33591)
as §3, §4, §5

[3] = system: methicillin resistant Staphylococcus epidermidis (ATCC 27626); test: microbe, parasite or virus in culture
Procedure: as §1, §2
Methicillin resistant Staphylococcus epidermidis (ATCC 27626)
as §3, §4, §5

[4] = system: Escherichia coli (ATTC 25922); test: microbe, parasite or virus in culture; details: for MIC E. coli: Example 1, di TFA salts, highest concentration tested 200 μg/ml
Procedure: as §1, §2
Escherichia coli (ATTC 25922)
as §3, §4, §5

[5] = ATTC 25923, read-out: MIC S. aureus
[6] = highest concentration tested 1000 μg/ml
[7] = ATTC 25922, read-out: MIC E. coli
[8] = Staphylococcus aureus, Example 2, values separated by / are repeat tests, read-out: Antimicrobial potency (MIC) S. aureus
[9] = Homo sapiens, Erythrocyte, Example 2, highest concentration tested 1000 μg/ml, * low solubility in the test media, read-out: Toxicity RBC (EC50)
[10] = Staphylococcus epidermidis, ATCC 27626 / MRSE, Example 2, values separated by / are repeat tests, read-out: Antimicrobial potency (MIC) MRSE
[11] = Escherichia coli, Example 2, values separated by / are repeat tests, read-out: Antimicrobial potency (MIC) E. coli

Row | SMILES | MBC S. aureus ([1]; ATTC 25923) [µM] | MIC [1, 5] [µM] | EC50 RBC (human red blood cells; [6]) | MBC MRSA [2] [µM] | MIC MRSA [2] [µM] | MBC MRSE ([3]; ATCC 27626) [µM] | MIC ([3]; ATCC 27626, read-out: MIC MRSE) [µM] | MBC E. coli ([4]; ATTC 25922) [µM] | MIC E. coli ([4]; ATTC 25922) | EC50 (human red blood cells; red cells of human) [µM] | MIC [4, 7] [µM] | MIC [1, 8] [µg/mL] | EC50 (human red blood cells; [9]) [µg/mL] | MIC [2] [µg/mL] | MIC [3, 10] [µg/mL] | MIC [4, 11] [µg/mL]
1 | N=C(N)NCCC[C@H](NC(=O)C(CN)(CCCc1ccccc1)CCCc1ccccc1)C(N)=O [Compound 4f] | 49 (≈ 23.6 µg/mL) | 49 | — (The notation “—”denotes no detectable activity (MIC or EC50) within the concentration range tested.) | 49 (≈ 23.6 µg/mL) | 49 (≈ 23.6 µg/mL) | 49 (≈ 23.6 µg/mL) | 35 | >282 | — (The notation “—”denotes no detectable activity (MIC or EC50) within the concentration range tested.) | – | – | – | – | – | – | –
2 | CC(C)c1ccc(CC(CN)(Cc2ccc(C(C)C)cc2)C(=O)N[C@@H](CCCNC(=N)N)C(N)=O)cc1 [Compound 4j] | 6.8 (≈ 3.46 µg/mL) | 10.2 | – | 6.8 (≈ 3.46 µg/mL) | 6.8 (≈ 3.46 µg/mL) | 6.8 (≈ 3.46 µg/mL) | 6.8 | 136 (≈ 69.2 µg/mL) | – | 386 | 136 | – | – | – | – | –
3 | Cc1cc(C)cc(CC(CN)(Cc2cc(C)cc(C)c2)C(=O)N[C@@H](CCCNC(=N)N)C(N)=O)c1 [Compound 4l] | 49 (≈ 23.6 µg/mL) | 60 | — (The notation “—”denotes no detectable activity (MIC or EC50) within the concentration range tested.) | 49 (≈ 23.6 µg/mL) | 49 (≈ 23.6 µg/mL) | 21 (≈ 10.1 µg/mL) | 35 | >282 | — (The notation “—”denotes no detectable activity (MIC or EC50) within the concentration range tested.) | – | – | – | – | – | – | –
4 | CC(C)(C)c1cc(CC(CN)(Cc2cc(C(C)(C)C)cc(C(C)(C)C)c2)C(=O)N[C@@H](CCCNC(=N)N)C(N)=O)cc(C(C)(C)C)c1 [Compound 4n] | 4.6 (≈ 2.99 µg/mL) | 2.9 | – | 4.6 (≈ 2.99 µg/mL) | 2.1 (≈ 1.36 µg/mL) | 3.4 (≈ 2.21 µg/mL) | 10.1 | 5.7 (≈ 3.7 µg/mL) | – | 99 | 5.7 | – | – | – | – | –
5 | CN(C)CCNC(=O)C(CN)(Cc1ccccc1)Cc1ccccc1 [Compound 23, 3-amino-2,2-dibenzyl-N-(2-(dimethylamino)-ethyl)-propanamide] | – | – | – | – | – | – | – | – | – | – | – | > 100 | > 1000 | > 100 | > 100 | > 100
6 | CN(C)CCNC(=O)C(CN)(Cc1ccc(C(C)(C)C)cc1)Cc1ccc(C(C)(C)C)cc1 [Compound 24, 3-amino-2,2-bis(4-tert-butylbenzyl)-N-(2-(dimethylamino)-ethyl)-propanamide] | – | – | – | – | – | – | – | – | – | – | – | 5 | 185 | 5 (≈ 11.1 µM) | 2.5 | 5
7 | Cc1cc(C)cc(CC(CN)(Cc2cc(C)cc(C)c2)C(=O)NCCN(C)C)c1 [Compound 25, 3-amino-N-(2-(dimethylamino)-ethyl)-2,2-bis(3,5-dimethylbenzyl)-propanamide] | – | – | – | – | – | – | – | – | – | – | – | 100 | 820 | 50 (≈ 126 µM) | 10 | 50
8 | CN(C)CCNC(=O)C(CN)(CCCc1ccccc1)CCCc1ccccc1 [Compound 26, 2-(aminomethyl)-N-(2-(dimethyl-amino)ethyl)-5-phenyl-2-(3-phenyl-propyl)-pentanamide] | – | – | – | – | – | – | – | – | – | – | – | 35 | 316 | 35 (≈ 88.5 µM) | 35 | 100
9 | CN(C)CCNC(=O)C(CN)(Cc1ccc2ccccc2c1)Cc1ccc2ccccc2c1 [Compound 27, 3-amino-N-(2-(dimethylamino)ethyl)-2,2-bis(naphthalen-2-ylmethyl)propanamide] | – | – | – | – | – | – | – | – | – | – | – | 5 | 145 | 5 (≈ 11.4 µM) | 5 | 15
10 | CN(C)CCNC(=O)C(CN)(Cc1ccc(C(F)(F)F)cc1)Cc1ccc(C(F)(F)F)cc1 [Compound 28, 3-amino-N-(2-(dimethylamino)ethyl)-2,2-bis(4-(trifluoromethyl)benzyl)-propanamide] | – | – | – | – | – | – | – | – | – | – | – | 10 | 329 | 5 (≈ 10.5 µM) | 15 | 35
11 | CN1CCN(C(=O)C(CN)(Cc2ccc(C(C)(C)C)cc2)Cc2ccc(C(C)(C)C)cc2)CC1 [Compound 29, 3-amino-2,2-bis(4-tert-butylbenzyl)-1-(4-methylpiperazin-1-yl)propan-1-one] | – | – | – | – | – | – | – | – | – | – | – | 10 | 241 | 10 (≈ 21.6 µM) | 5 | 10
12 | Cc1cc(C)cc(CC(CN)(Cc2cc(C)cc(C)c2)C(=O)N2CCN(C)CC2)c1 [Compound 30, 3-amino-2,2-bis(3,5-dimethyl-benzyl)-1-(4-methylpiperazin-1-yl)propan-1-one] | – | – | – | – | – | – | – | – | – | – | – | > 200 | > 1000 | 200 (≈ 491 µM) | 35 | 200
13 | CN1CCN(C(=O)C(CN)(CCCc2ccccc2)CCCc2ccccc2)CC1 [Compound 31, 2-(aminomethyl)-1-(4-methyl-piperazin-1-yl)-5-phenyl-2-(3-phenylpropyl)pentan-1-one] | – | – | – | – | – | – | – | – | – | – | – | 200 | > 1000 | 200 (≈ 491 µM) | 200 | 200
14 | CN1CCN(C(=O)C(CN)(Cc2ccc3ccccc3c2)Cc2ccc3ccccc3c2)CC1 [Compound 32, 3-amino-1-(4-methylpiperazin-1-yl)-2,2-bis(naphthalen-2-ylmethyl)propan-1-one] | – | – | – | – | – | – | – | – | – | – | – | 10 | 225 | 5 (≈ 11.1 µM) | 10 | 15
15 | CN1CCN(C(=O)C(CN)(Cc2ccc(C(F)(F)F)cc2)Cc2ccc(C(F)(F)F)cc2)CC1 [Compound 33, 3-amino-1-(4-methylpiperazin-1-yl)-2,2-bis(4-(trifluoromethyl)benzyl)propan-1-one] | – | – | – | – | – | – | – | – | – | – | – | 35 | 376 | 10 (≈ 20.5 µM) | 50 | 50
